Data on two molecules can be found in patent US20080050398A1, “Composition Comprising Beta-Defensin 2” (priority 2005, published 2008).

No end group written: not given here.

One assay relates to xylanase. Put plainly: Compatibility of surfactants with enzymes: remaining enzyme activity. It counts as biochemical. To be noted: 0.1% SDS. The method, then: (§1) In selection of suitable surfactants, one must make sure that they are compatible with the enzymes used. It is preferable that the enzyme activity not decrease more than 50%, particularly not more than 30%, during a typical average working time of 15 minutes. Thus, tests have shown that sodium dodecyl sulfate (SDS), which is known to be a denaturant, reduces the activity of corolase to less than 30% within 15 minutes, even at a concentration of 1%, while the activity of xylanase decreases to less than 40% with only 0.1% SDS, so that surfactant is not preferred for use in the cleaning agents according to the invention. If that surfactant, or one with similar action, must nevertheless be used, one should preferably make sure of spatial separation during storage, such as by encapsulating the enzyme or by use of a multichamber bottle so that the enzyme and surfactant come into contact with each other only immediately before or during use. Alkyl polyglycosides, on the other hand, are well suited for use in enzyme-containing agents according to this invention. For instance, the activity of corolase remains clearly over 50% even with 3% APG 600, while xylanase actually experiences an increase in activity from the use of APG 600 (more than 150% activity with 0.1% surfactant) and still has more than 80% activity with 3% APG.

The subject of a further assay is corolase. Described as above. It counts as biochemical. To be noted: 1% SDS, within 15 minutes. Here is the method: as §1
The test system of a further assay is Propionibacterium acnes. Put plainly: Inhibition of skin microorganisms by human β-defensin 2: CFU count, reduction factor vs control. It counts as cell-based. The note with it: P. acnes; for inhibition of the microorganism (in words): harmful organism; for logarithmic decrease in the cell number (RF): 35.7 μg/ml, compared with the control. The method, then:
(§2) Staphylococcus epidermidis and bacillus lichenformis were grown in LB medium under aerobic conditions at 37° C. Propionibacterium acnes was grown in TBST medium under anaerobic conditions at 37° C. The concentration of human β-defensin 2 was 35.7 μg/ml. Procedure: 18-hour cultures (S. epidermidis and B. lichenformis) or 5-day cultures (P. acnes) in LB or TBST liquid media; Measurement of the cultures at A620 nm; Adjustment in PBS [phosphate-buffered saline] to the proper A620 nm for 10^6 CFU/ml of the test strain; Microbial content checked with a dilution series in MTP brief procedure and plating; Make up stock solution of the ingredient AWK in PBS; Put 10 μl aliquots of the test strain suspension in the PCR tubes provided for AWK and control; Add to each 10 μl aliquots of AWK or PBS; Incubate aerobically at 37° C.; Determine the microbial content of the suspensions after 8 and 24 hours, with a dilution series in the MTP brief procedure and plating; Incubation of the agar plates under proper conditions for the strain; Evaluation, by visual check of the cultured agar plates, 8 or 24 hours after the start of the test; determination of the CFU and calculation of the reduction factors.

The next assay has as its system bacillus lichenformis. Described as above. To be noted: B. lichenformis; for inhibition of the microorganism (in words): useful skin microorganism; for logarithmic decrease in the cell number (RF): 35.7 μg/ml, compared with the control. It counts as cell-based. Here is the method:
as §2

The subject of assay [1] is Staphylococcus epidermidis. Described as above. To be noted: S. epidermidis; for inhibition of the microorganism (in words): useful skin microorganism; for logarithmic decrease in the cell number (RF): 35.7 μg/ml, compared with the control. It counts as cell-based. The method, then: as §2

With `CCCCCCCCCCCCOS(=O)(=O)[O-].[Na+]` [SDS, sodium dodecyl sulfate], the activity of xylanase entry in the assay on xylanase is on record as “less than 40%”. Also, the activity of corolase entry in the assay with corolase was “less than 30%”.
For the molecule “human β-defensin 2 (GIGDPVTCLKSGAICHPVFCPRRYKQIGGCGLPGTKCCKKP; ends and bridges not checked; cysteine pairing not given here) [used as hBD2 (Sigma) in the formulations]”, the “inhibition of the microorganism (in words)” value with Propionibacterium acnes (listed as human β-defensin 2) is given as “good inhibition”; with Propionibacterium acnes (listed as β-defensin 2) it was “distinctly more strongly inhibited”; in the assay on bacillus lichenformis (listed as human β-defensin 2), “only slight inhibition”; in the assay on bacillus lichenformis (listed as β-defensin 2), “only a slight inhibitory effect”; in assay [1] (listed as human β-defensin 2) it was “only slight inhibition”; in assay [1] (listed as β-defensin 2), “only a slight inhibitory effect”. The “logarithmic decrease in the cell number (RF)” value came out at 0.9586 with Propionibacterium acnes (exposure time 8 hr); 1.833 in the assay on Propionibacterium acnes (exposure time 24 hr); 0.09275 with bacillus lichenformis (exposure time 8 hr); 0.3716 with bacillus lichenformis (exposure time 24 hr); 0.1963 in assay [1] (exposure time 8 hr); 0.09922 in assay [1] (exposure time 24 hr).
